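Values below derive from 48-hour exposures of cells grown in 96-well plates, with endpoints linearly interpolated between the two concentrations bracketing the appropriate inhibition level. At the GI50, growth is halved. The concentration for full growth arrest is given as TGI.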
How the values were obtained:
Experiment in all cases: growth of human tumour cells (NCI), 48 h
CCRF-CEM leukemia = system: CCRF-CEM leukemia
SK-MEL-5 melanoma = system: SK-MEL-5 melanoma
OVCAR-8 ovarian = system: OVCAR-8 ovarian
SK-MEL-28 melanoma = system: SK-MEL-28 melanoma
MDA-MB-435 = system: MDA-MB-435
NCI-H522 lung = system: NCI-H522 lung
TK-10 renal = system: TK-10 renal
MOLT-4 leukemia = system: MOLT-4 leukemia
SF-539 CNS = system: SF-539 CNS
MALME-3M melanoma = system: MALME-3M melanoma

Compound	TGI (CCRF-CEM leukemia)	TGI (SK-MEL-5 melanoma)	TGI (OVCAR-8 ovarian)	TGI (SK-MEL-28 melanoma)	TGI (MDA-MB-435)	TGI (NCI-H522 lung)	TGI (TK-10 renal)	TGI (MOLT-4 leukemia)	TGI (SF-539 CNS)	TGI (MALME-3M melanoma)	GI50 (CCRF-CEM leukemia)	GI50 (SK-MEL-5 melanoma)	GI50 (OVCAR-8 ovarian)	GI50 (SK-MEL-28 melanoma)	GI50 (MDA-MB-435)	GI50 (TK-10 renal)	GI50 (MOLT-4 leukemia)	GI50 (SF-539 CNS)	GI50 (MALME-3M melanoma)	GI50 (NCI-H522 lung)
O=C1C[C@H](CCC(=O)OCc2ccccc2)NC(=O)C[C@H](CCC(=O)OCc2ccccc2)NC(=O)C[C@H](CCC(=O)OCc2ccccc2)N1	> 100 µM	> 100 µM	> 100 µM	> 100 µM	> 100 µM	> 100 µM	25.4 µM	> 100 µM	40.4 µM	> 100 µM										
COc1cc2c(cc1OCCCN1CCN(c3ncnc4ccccc34)CC1)N=CC1CCCN1C2=O (stereo unspecified)	0.48 µM	0.0323 µM	> 53.6 µM	0.103 µM	0.0498 µM	0.0285 µM	1.08 µM	0.0596 µM	0.0696 µM	0.0479 µM	< 0.0146 µM	0.0168 µM	0.043 µM	0.0336 µM	0.0214 µM	0.0293 µM	0.0175 µM	0.0271 µM	0.0198 µM	
Fc1c(F)c(C(F)(F)F)c(F)c(F)c1N/N=C/c1cn(Cc2ccccc2)c2ccccc12	48.4 µM	36 µM	> 100 µM	> 100 µM	54.5 µM	70.1 µM	66.4 µM	83.3 µM	42.1 µM	> 100 µM										
COc1ccc(C2C(C=O)C(N3CCN(C)CC3)=Nc3nc4ccccc4n32)cc1 (stereo unspecified)	17.8 µM	31.5 µM	33.1 µM	34.8 µM	39.7 µM	25.6 µM	40 µM	12.3 µM	54.5 µM	26.3 µM										
O=S(O)c1cc(Cl)cc(Cl)c1OCc1ccccc1	> 100 µM			> 100 µM		> 100 µM	> 100 µM	> 100 µM	> 100 µM	> 100 µM										
CNC(=O)Nc1ccccc1	> 100 µM	> 100 µM	> 100 µM	> 100 µM	> 100 µM	> 100 µM	> 100 µM	> 100 µM	> 100 µM	> 100 µM										
O=C(COc1ccc(Cl)cc1Cl)N/N=C/C=C/c1ccc([N+](=O)[O-])o1	15.2 µM	5.26 µM	76.6 µM	> 100 µM	> 100 µM	2.83 µM	91.5 µM	6.14 µM	> 100 µM	6.65 µM										
C[N+](C)(CCO)CCN1c2ccccc2Sc2ccccc21	> 10 µM	> 10 µM	> 10 µM	> 10 µM	> 10 µM	> 10 µM	> 10 µM	> 10 µM	> 10 µM	> 10 µM										
COc1ccc2nc3ccccc3c(NCc3ccc(C)cc3)c2c1	11.4 µM	3.19 µM	7.27 µM	3.29 µM	2.89 µM	4.67 µM	4.15 µM	11.5 µM	3.18 µM	3.29 µM	2.37 µM	1.77 µM	2.24 µM	1.75 µM	1.44 µM	1.97 µM	3.04 µM	1.68 µM	1.81 µM	1.94 µM

— PubChem BioAssay (NCI)
